According to patent US20260055088A1, “HETEROCYCLIC COMPOUND, METHOD FOR PREPARING SAME, AND PHARMACEUTICAL USE THEREOF” (Jiangsu Hengrui Pharmaceuticals Co., Ltd., priority 2022, published 2026):

Test: Effect on body weight in rat incision pain model
Assay type: in vivo, SD rats
Conditions: i.g./one dose
Experimental: Nine SD rats, weighing 170-190 g, were selected for this study. The mechanical pain threshold was measured using an electronic aesthesiometer. Then an incision pain surgery was performed. During the surgery, after the rats were anesthetized with Zoletil (Zoletil-50, 250 mg, diluted with normal saline to 50 mL after being dissolved, injected at a dose of 2 mL per 200 g of body weight), a 1 cm long incision was made in the middle of the plantar surface of the left hind paw using a No. 10 scalpel blade, cutting through the skin and fascia, and the incision was closed using 3-0 sterile silk sutures. The injured area was disinfected with penicillin, and the animals were returned to their original place to recover overnight. After the overnight recovery, oral gavage administration was performed. Five hours after administration (about 24 h after surgery), the mechanical pain threshold was measured using an electronic aesthesiometer.
The analgesic efficacy of the compound of Example 16 in the rat incision pain model is shown in FIG. 3 and Table 7, and its effect on body weight is shown in FIG. 4. The analgesic efficacy of the compound of Example 32 in the rat incision pain model is shown in FIG. 5 and Table 7, and its effect on body weight is shown in FIG. 6.

CO/N=C(\N)c1cc(NC(=O)[C@@H]2O[C@@](C)(C(F)(F)F)[C@@H](C)[C@H]2c2ccc(F)c(F)c2OC)ccn1 [Example 16]
Effect on body weight of rats: did not influence the body weight of rats

COc1c([C@H]2[C@H](C(=O)Nc3ccnc(/C(N)=N/O)c3)O[C@@](C)(C(F)(F)F)[C@H]2C)ccc(F)c1F [Example 32]
Effect on body weight of rats: did not influence the body weight of rats
